Reference: patent US4544512A, “Tridecyloxy- or tetradecyloxy-propane derivatives” (Takeda Chemical Industries, Ltd., priority 1980, dated 1985)
Converted amounts (≈) assume the structure as drawn.

How the values were obtained:
[1] = system: spontaneous myeloid leukemia M1 cells; assay: Growth inhibition of cultured spontaneous mouse myeloid leukemia M1 cells (GD50); type: cell-based, mice (SL-strain); settings: for IC50: Mus musculus, 72 h, 3 days, 37° C., Trypan Blue dye-exclusion, M1 Resistant clone; for B/A (GD50 normal bone marrow cells / GD50 M1 cells): ratio of GD50 values, 4320 min
Protocol: (§1) BALB/c mice at a concentration of 1 μg/ml (Cancer Res. 39, pp. 4681-4686 (1979)). The present inventors conducted comparative tests between octadecyl phospholipid and the corresponding tridecyl compound as well as tetradecyl compound on the activity (GD50) to inhibit the multiplication of spontaneous myeloid leukemia cells M1 in mice. […] The effect on the corresponding normal cells, i.e. on the myeloid cells of normal mice, is far weaker in the tetradecyl compounds. Therefore, in view of the balance of the inhibiting activity against multiplication of tumor cells and the safety (Chemotherapy Coefficient), it can be said that tetradecyl phospholipid is preferable to octadecyl phospholipid.
(§2) By employing Eagle's minimum essential medium supplemented with 10% heat-inactivated calf serum, incubation of spontaneous myeloid leukemia M1 cells (Resistant clone) harvested from mice (SL-strain) and normal bone marrow cells of mice of the same strain was conducted, in the presence or absence of the test compound in various concentrations, in a humified CO2 incubator at 37° C. for 3 days. The number of viable cells was determined by the Trypan Blue Stain dye-exclusion test. The concentration of the tested compound for 50% inhibiting the proliferation of M1 cells or normal bone marrow cells (GD50) was determined, and the result was shown in Table 1.

normal bone marrow cells = assay: Growth inhibition of normal mouse bone marrow cells (GD50); type: cell-based, mice (SL-strain); settings: Bone marrow cell, 72 h, 3 days, 37° C., Trypan Blue dye-exclusion, read-out: GD50 Normal mouse bone marrow cells (B)
Protocol: as §1, §2

| Structure (SMILES) | IC50 [1] | B/A (GD50 normal bone marrow cells / GD50 M1 cells) [1] | IC50 (normal bone marrow cells) |
| --- | --- | --- | --- |
| CCCCCCCCCCCCCCCCCCOCC(COP(=O)([O-])OCC[N+](C)(C)C)OC (stereo not drawn) [drawing 17, reference compound] | 0.6 µg/mL (≈ 1.15 µM) | 25 | 15 µg/mL (≈ 28.6 µM) |
| CCCCCCCCCCCCCCOCC(COP(=O)([O-])OCC[N+](C)(C)C)OC (stereo not drawn) [drawing 18] | 1.2 µg/mL (≈ 2.57 µM) | 33 | 40 µg/mL (≈ 85.5 µM) |
